One data set concerns the target Cannabinoid receptor 1 (Homo sapiens, UniProt P21554). Briefly: Binding affinity to CB1 receptor.
Data set [1] concerns Blood. Briefly: Drug uptake in […] blood at 8 MBq/200 mL, iv after 30 mins. It counts as ADME, organism-based. The following applies: in vivo, 0.5 h.
Data set [2] has as its system Brain. Briefly: Drug uptake in […] brain at 8 MBq/200 mL, iv after 60 mins. It counts as ADME, organism-based. The following applies: in vivo, 1 h.
For data set [3], the system named is Blood. Kind of data set: Drug uptake in […] blood at 8 MBq/200 mL, iv after 5 mins. It is filed as ADME, organism-based. Particulars: in vivo.
Data set [4] relates to Brain. Briefly: Drug uptake in […] brain at 8 MBq/200 mL, iv after 5 mins. It is filed as ADME, organism-based. The following applies: in vivo.
Data set [5] deals with Blood. Briefly: Drug uptake in […] blood at 8 MBq/200 mL, iv after 15 mins. It counts as ADME, organism-based. Particulars: in vivo, 0.25 h.
Data set [6] concerns Blood. Briefly: Drug uptake in […] blood at 8 MBq/200 mL, iv after 60 mins. It is filed as ADME, organism-based. The following applies: in vivo, 1 h.
Data set [7] concerns Brain. Kind of data set: Drug uptake in […] brain at 8 MBq/200 mL, iv after 30 mins. It counts as ADME, organism-based. Particulars: in vivo, 0.5 h.
The test system of data set [8] is Brain. Briefly: Drug uptake in […] brain at 8 MBq/200 mL, iv after 1 min. The following applies: in vivo. It is filed as ADME, organism-based.
The subject of data set [9] is Brain. Kind of data set: Drug uptake in […] brain at 8 MBq/200 mL, iv after 15 mins. It counts as ADME, organism-based. The following applies: in vivo, 0.25 h.
In data set [10] the test system is Blood. Briefly: Drug uptake in […] blood at 8 MBq/200 mL, iv after 1 min. It counts as ADME, organism-based. Particulars: in vivo.
For data set [11], the target named is Cannabinoid receptor 2 (Homo sapiens, UniProt P34972). Kind of data set: Binding affinity to human CB2 receptor.
For data set [12], the target named is T1, Cannabinoid receptor 2 (Rattus norvegicus, UniProt Q9QZN9).
T1 sequence (Q9QZN9 whole entry): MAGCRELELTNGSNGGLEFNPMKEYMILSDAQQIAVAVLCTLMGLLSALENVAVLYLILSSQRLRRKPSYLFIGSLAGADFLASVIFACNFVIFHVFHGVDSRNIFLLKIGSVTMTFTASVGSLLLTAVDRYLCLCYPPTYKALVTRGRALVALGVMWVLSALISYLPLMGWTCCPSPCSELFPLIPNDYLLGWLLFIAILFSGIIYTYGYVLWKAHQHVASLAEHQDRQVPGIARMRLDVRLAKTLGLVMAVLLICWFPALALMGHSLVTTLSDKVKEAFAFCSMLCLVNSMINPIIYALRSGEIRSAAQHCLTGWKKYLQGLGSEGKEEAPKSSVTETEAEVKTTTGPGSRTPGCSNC
Briefly: Binding affinity to rat brain CB2 receptor.

Cannabinoid receptor 2 (Homo sapiens, UniProt P34972), sequence (P34972 whole entry): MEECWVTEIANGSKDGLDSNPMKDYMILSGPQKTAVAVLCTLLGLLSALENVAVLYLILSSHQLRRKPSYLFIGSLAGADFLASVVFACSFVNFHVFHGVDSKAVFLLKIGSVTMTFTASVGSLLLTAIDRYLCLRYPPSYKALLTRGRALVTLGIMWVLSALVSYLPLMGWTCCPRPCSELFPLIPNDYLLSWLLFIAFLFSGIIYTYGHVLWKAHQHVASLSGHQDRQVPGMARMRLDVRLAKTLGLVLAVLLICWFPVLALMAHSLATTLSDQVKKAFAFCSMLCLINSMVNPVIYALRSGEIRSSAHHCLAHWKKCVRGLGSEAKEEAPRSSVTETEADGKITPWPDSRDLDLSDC
Cannabinoid receptor 1, sequence (P21554 whole entry): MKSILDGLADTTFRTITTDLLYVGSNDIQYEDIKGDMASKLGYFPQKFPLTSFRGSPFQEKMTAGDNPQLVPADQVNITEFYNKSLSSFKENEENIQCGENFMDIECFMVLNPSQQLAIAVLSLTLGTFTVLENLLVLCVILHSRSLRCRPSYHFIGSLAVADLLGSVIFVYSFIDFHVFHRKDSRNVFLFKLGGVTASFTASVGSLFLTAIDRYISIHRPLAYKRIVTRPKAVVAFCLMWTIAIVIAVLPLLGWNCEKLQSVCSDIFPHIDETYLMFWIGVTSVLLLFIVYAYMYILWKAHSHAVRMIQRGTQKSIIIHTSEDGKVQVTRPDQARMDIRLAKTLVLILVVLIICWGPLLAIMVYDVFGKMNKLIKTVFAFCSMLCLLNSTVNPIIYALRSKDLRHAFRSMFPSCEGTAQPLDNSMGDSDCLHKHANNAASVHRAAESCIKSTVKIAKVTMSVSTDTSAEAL

The term Ki denotes a dissociation constant, usually derived from enzyme kinetics or from competition with a known ligand. A low value points to higher affinity. As for `COc1cc(C(O)c2cccs2)cc(OC)c1-c1cc(Cl)cc(Cl)c1` (stereo unspecified), on Cannabinoid receptor 1, the Ki is > 1000 nM.

Consider `[11CH3]Oc1cc(C(O)c2cccs2)cc(O)c1-c1cc(Cl)cc(Cl)c1` (stereo unspecified), for which the Drug uptake is 0.35% in the data set on Blood [1]; 0.45% in the data set with Brain [2]; 1.18% in the data set with Blood [3]; 2.07% in the data set with Brain [4]; 0.7% in the data set with Blood [5]; 0.37% in the data set with Blood [6]. For the same compound, the Drug uptake with Brain [7] is 0.96%; in the data set on Brain [8], 1.94%; in the data set on Brain [9], 1.77%; in the data set on Blood [10], 2.2%.

As to `CCCCOc1c(O[11CH3])ccc2cc(C(=O)NC3CCCCC3)c(=O)[nH]c12`, the inhibitory constant (Ki) at Cannabinoid receptor 2 [11] was found to be 9.6 nM.

`CCCCOc1c(OCC[18F])ccc2cc(C(=O)NC3CCCCC3)c(=O)[nH]c12` showed a Ki at Cannabinoid receptor 2 [11] of 35.8 nM.

On to `COc1cc(C(=O)c2cccs2)cc(O[11CH3])c1-c1cc(Cl)cc(Cl)c1`, for which the Drug uptake is listed as 3.42% with Blood [1]; 0.62% in the data set with Brain [2]; 2.93% in the data set on Blood [3]; 1.29% in the data set on Brain [4]; 3.45% in the data set with Blood [5]; 3.38% with Blood [6]. Besides, the Drug uptake with Brain [7] was determined as 0.85%; with Brain [8], 1.2%; in the data set with Brain [9], 1.1%; in the data set on Blood [10] it was 2.71%.

As for `[11CH3]Oc1cc(C(=O)c2cccs2)cc(O)c1-c1cc(Cl)cc(Cl)c1`, the Drug uptake with Blood [1] is 0.36%; in the data set on Brain [2], 0.18%; in the data set with Blood [3], 1%; in the data set on Brain [4], 1.63%; in the data set on Blood [5] it was 0.63%; with Blood [6], 0.21%. The Drug uptake in the data set with Brain [7] is reported as 0.56%; in the data set on Brain [8], 1.54%; with Brain [9] it was 1.01%; in the data set on Blood [10] it was 1.56%. In addition, the Ki at Cannabinoid receptor 2 [12] worked out at 2.32 nM.

In turn, `COc1ccc(S(=O)(=O)c2ccc(C(C)NS(C)(=O)=O)cc2)c(S(=O)(=O)c2ccc(O[11CH3])cc2)c1` (stereo unspecified) had a Ki at Cannabinoid receptor 2 [11] of 4.5 nM.

`COc1cc(C(O)c2cccs2)cc(O[11CH3])c1-c1cc(Cl)cc(Cl)c1` (stereo unspecified): the Drug uptake in the data set with Blood [1] is on record as 2.38%; in the data set on Brain [2] it was 0.65%; in the data set with Blood [3] it was 2.12%; with Brain [4], 1.87%; in the data set with Blood [5] it was 2.25%; in the data set with Blood [6] it was 2.27%. The Drug uptake stood at 1.09% in the data set on Brain [7], 1.93% with Brain [8], 1.5% with Brain [9] and 3.9% in the data set with Blood [10]. On Cannabinoid receptor 2 [12], this compound displayed a Ki of 0.27 nM.

These data come from ChEMBL document CHEMBL1154937, “Radiosynthesis of novel carbon-11-labeled triaryl ligands for cannabinoid-type 2 receptor” (Bioorg Med Chem Lett, 2010).
